Laboratory results as given in patent US20050186658A1, “Chimeric metabotropic glutamate receptors and uses thereof” (NPS Pharmaceuticals, Inc., priority 2003, published 2005).

Tests used:
CaSPhmGluR2(27-19) = molecular target: T1, CaSPhmGluR2(27-19) (Homo sapiens, UniProt Q14416); assay: oocyte assay for Gαi-coupled receptors (GIRK1/GIRK4 co-injection, voltage clamp); format: cell-based; conditions: 100 uM L-glutamate; Xenopus oocytes; FIG. 6
T1 construct: CaR signal peptide (first 27 amino acids of CaR) (N); expressed in transfected cells; host or cells: Xenopus laevis oocytes injected with RNA (with GIRK1 and GIRK4 RNA)
T1 sequence (Q14416 with tags, fused parts or gaps): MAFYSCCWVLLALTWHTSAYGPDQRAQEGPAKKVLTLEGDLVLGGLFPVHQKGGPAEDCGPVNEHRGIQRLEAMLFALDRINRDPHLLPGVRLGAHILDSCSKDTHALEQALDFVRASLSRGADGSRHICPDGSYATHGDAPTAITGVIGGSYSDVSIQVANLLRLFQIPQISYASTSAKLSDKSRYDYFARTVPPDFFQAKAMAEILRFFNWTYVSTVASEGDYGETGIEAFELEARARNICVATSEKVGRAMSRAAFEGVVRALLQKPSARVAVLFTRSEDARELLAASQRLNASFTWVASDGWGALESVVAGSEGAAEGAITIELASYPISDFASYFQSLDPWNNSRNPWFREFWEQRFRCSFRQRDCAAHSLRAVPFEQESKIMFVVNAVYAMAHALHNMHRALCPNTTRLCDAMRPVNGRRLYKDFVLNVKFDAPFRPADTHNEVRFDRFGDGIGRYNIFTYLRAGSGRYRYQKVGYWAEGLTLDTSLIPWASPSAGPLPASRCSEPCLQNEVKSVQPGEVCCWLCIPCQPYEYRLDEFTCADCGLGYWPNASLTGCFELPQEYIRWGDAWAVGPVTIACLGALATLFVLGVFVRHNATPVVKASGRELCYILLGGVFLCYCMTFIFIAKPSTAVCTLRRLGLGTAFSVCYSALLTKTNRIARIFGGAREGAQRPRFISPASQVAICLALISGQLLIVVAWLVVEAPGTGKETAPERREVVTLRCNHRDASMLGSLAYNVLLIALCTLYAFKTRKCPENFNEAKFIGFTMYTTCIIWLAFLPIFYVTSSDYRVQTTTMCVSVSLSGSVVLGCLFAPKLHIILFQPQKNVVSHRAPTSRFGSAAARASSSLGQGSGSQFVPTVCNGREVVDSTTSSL

human CaR = molecular target: T2, human CaR (Homo sapiens, UniProt P41180, R990G); assay: PLC-coupled oocyte assay; format: cell-based; conditions: Xenopus oocytes; FIG. 10B
T2 construct: expressed in transfected cells; host or cells: Xenopus laevis oocytes injected with human CaR RNA (plasmid phPCaR4.0)
T2 sequence (P41180 20-1078 R990G): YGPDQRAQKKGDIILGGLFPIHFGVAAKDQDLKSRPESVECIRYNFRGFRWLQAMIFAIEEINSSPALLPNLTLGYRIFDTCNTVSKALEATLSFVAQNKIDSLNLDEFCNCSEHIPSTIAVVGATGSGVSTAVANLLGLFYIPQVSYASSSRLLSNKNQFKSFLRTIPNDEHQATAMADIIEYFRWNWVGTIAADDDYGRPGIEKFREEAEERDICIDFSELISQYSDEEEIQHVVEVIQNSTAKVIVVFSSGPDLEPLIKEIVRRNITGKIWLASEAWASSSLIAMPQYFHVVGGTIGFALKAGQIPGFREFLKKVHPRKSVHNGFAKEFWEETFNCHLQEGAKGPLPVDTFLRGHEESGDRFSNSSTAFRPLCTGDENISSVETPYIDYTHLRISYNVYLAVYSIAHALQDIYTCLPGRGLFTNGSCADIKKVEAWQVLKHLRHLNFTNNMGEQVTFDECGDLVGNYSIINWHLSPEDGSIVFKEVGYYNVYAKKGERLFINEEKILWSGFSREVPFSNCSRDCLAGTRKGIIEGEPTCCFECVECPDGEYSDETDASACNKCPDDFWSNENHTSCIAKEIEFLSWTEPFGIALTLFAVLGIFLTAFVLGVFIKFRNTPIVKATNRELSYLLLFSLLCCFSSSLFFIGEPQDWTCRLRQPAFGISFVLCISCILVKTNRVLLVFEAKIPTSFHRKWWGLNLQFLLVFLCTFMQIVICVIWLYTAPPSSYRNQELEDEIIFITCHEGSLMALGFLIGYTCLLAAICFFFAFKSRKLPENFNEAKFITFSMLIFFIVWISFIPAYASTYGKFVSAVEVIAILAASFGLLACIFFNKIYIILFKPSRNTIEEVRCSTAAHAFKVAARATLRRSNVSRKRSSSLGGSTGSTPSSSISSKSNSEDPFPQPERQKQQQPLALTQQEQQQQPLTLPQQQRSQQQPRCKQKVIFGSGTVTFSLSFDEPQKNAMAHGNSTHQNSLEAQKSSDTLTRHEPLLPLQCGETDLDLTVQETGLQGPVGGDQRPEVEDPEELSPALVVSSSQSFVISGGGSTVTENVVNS

CaSPhmGluR6(27-35) = molecular target: T3, CaSPhmGluR6(27-35) (Homo sapiens, UniProt O15303, Q59P); assay: oocyte assay for Gαi-coupled receptors (GIRK1/GIRK4 co-injection, voltage clamp); format: cell-based; conditions: 100 uM L-glutamate; Xenopus oocytes; FIG. 7
T3 construct: CaR signal peptide (first 27 amino acids of CaR) (N); expressed in transfected cells; host or cells: Xenopus laevis oocytes injected with RNA
T3 sequence (O15303 with tags, fused parts or gaps Q59P): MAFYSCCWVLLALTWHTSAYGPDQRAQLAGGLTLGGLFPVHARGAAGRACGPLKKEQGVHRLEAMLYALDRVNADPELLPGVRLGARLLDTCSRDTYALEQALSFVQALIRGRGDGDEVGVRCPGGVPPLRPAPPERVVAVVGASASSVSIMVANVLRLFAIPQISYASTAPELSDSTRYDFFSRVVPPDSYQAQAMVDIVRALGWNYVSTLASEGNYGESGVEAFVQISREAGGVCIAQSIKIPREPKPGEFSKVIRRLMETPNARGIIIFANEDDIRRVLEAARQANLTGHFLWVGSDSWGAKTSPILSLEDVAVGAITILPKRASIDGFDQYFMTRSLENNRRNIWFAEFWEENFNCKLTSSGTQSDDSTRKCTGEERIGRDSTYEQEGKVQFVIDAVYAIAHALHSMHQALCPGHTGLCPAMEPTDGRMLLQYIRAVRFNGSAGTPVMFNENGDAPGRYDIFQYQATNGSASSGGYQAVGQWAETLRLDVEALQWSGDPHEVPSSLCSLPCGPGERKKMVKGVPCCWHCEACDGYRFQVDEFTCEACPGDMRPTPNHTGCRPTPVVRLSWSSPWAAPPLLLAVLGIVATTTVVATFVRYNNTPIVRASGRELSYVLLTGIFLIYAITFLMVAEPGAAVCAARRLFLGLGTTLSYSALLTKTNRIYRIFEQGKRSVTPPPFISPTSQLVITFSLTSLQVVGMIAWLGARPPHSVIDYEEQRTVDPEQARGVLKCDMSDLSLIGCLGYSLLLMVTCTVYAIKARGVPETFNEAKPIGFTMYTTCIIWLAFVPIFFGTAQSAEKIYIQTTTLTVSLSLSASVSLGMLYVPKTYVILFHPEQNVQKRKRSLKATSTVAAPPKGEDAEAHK
Experimental: (§1) The ability of each Gαi-coupled mGlu or mGluR-CaR chimeric receptors to function was determined in Xenopus oocytes, with co-injection of the G-protein inward rectifying potassium channel subunits, GIRK 1 and GIRK4 (Kubo et al 1993 Nature 364: 802). Individual oocytes were injected with a mixture containing 5 ng receptor, 1.5 ng GIRK1 and 1.5 ng GIRK4. […] Further details can be found in Saugstad, et al., J. Neurosci. 1996 16:5979-5985. Application of glutamate evoked inward potassium currents in oocytes expressing both the chimeric receptors and the potassium channels, but not in oocytes expressing only the receptor or only the channel subunits.

CaSPhmGluR3(27-33) = molecular target: T4, CaSPhmGluR3(27-33) (Homo sapiens, UniProt Q14832); assay: as above; format: cell-based; conditions: 100 uM L-glutamate; Xenopus oocytes; FIG. 5
T4 construct: CaR signal peptide (first 27 amino acids of CaR) (N); expressed in transfected cells; host or cells: Xenopus laevis oocytes injected with RNA (with GIRK1 and GIRK4 RNA)
T4 sequence (Q14832 with tags, fused parts or gaps): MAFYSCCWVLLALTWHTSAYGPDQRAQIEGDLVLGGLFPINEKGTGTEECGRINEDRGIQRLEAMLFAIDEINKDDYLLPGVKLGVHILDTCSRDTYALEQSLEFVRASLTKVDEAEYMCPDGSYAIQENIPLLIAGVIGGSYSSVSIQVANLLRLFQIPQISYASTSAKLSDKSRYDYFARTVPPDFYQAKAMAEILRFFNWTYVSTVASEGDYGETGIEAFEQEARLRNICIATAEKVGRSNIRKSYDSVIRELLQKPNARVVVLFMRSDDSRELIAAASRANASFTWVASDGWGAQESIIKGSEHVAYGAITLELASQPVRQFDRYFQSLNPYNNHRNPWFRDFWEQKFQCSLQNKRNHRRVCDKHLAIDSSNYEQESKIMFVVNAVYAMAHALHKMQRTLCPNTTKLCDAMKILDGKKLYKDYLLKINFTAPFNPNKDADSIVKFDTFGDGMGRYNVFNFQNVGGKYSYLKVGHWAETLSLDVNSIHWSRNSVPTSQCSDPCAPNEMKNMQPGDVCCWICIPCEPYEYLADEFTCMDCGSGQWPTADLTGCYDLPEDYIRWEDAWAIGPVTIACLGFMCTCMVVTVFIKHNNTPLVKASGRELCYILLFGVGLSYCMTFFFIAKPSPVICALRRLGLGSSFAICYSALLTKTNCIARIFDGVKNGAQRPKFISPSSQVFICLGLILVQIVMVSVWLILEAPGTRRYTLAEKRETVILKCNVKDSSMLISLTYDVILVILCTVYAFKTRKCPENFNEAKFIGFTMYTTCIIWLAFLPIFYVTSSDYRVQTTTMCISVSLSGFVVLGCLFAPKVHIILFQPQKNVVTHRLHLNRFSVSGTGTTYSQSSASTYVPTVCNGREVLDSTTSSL
Experimental: as §1

CaSPhmGluR7(27-45) = molecular target: T5, CaSPhmGluR7(27-45) (Homo sapiens, UniProt Q14831); assay: as above; format: cell-based; conditions: 100 uM L-glutamate; Xenopus oocytes; FIG. 4
T5 construct: human CaR signal peptide (first 27 amino acids of CaR), replacing mGluR7 residues 1-44 (N); expressed in transfected cells; host or cells: Xenopus laevis oocytes injected with in vitro transcribed RNA (co-injected with GIRK1 and GIRK4 RNA)
Experimental: as §1

CaSPhmGluR5(27-22) = molecular target: T6, CaSPhmGluR5(27-22) (Homo sapiens, UniProt P41594); assay: oocyte assay for PLC-coupled receptors (voltage clamp, Cl- current); format: cell-based; conditions: 100 uM L-glutamate; Xenopus oocytes; FIG. 8
T6 construct: CaR signal peptide (first 27 amino acids of CaR) (N); expressed in transfected cells; host or cells: Xenopus laevis oocytes injected with in vitro transcribed RNA
T6 sequence (P41594 with tags, fused parts or gaps): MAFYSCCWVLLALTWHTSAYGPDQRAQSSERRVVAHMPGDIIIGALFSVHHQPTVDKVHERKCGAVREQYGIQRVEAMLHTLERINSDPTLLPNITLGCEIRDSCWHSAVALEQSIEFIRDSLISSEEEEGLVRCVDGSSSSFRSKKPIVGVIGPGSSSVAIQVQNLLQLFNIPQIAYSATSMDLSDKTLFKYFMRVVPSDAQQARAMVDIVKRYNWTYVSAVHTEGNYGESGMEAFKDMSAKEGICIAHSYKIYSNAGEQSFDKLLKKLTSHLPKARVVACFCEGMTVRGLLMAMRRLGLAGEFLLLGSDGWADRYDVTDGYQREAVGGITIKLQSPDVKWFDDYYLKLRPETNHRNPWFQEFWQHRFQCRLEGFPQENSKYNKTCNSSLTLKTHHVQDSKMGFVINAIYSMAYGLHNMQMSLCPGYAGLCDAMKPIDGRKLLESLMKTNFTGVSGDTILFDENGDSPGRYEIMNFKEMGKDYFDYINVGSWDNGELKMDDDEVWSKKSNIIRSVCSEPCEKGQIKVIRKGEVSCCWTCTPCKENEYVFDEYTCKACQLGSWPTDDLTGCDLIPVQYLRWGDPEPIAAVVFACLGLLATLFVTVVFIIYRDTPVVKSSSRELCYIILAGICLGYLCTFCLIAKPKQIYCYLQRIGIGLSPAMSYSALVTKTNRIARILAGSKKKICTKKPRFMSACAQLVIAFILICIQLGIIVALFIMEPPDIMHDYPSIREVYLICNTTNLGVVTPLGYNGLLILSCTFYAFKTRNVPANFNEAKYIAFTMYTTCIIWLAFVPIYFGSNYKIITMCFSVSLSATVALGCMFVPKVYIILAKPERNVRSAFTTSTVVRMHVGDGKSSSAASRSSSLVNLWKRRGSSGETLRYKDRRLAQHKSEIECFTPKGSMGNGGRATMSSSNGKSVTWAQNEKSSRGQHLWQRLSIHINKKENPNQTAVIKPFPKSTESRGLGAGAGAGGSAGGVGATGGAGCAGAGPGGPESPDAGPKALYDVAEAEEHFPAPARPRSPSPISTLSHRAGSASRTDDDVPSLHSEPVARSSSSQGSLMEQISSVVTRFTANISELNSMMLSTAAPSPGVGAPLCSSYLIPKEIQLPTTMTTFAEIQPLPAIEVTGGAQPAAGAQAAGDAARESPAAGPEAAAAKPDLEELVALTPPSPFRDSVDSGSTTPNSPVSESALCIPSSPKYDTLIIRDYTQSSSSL

pmGluR1/CaR chimera = pmGluR1/CaR chimera (Rattus norvegicus, UniProt P23385); conditions: Xenopus oocytes; compared with rat mGluR1; FIG. 9
Sequence of pmGluR1/CaR chimera (P23385 with tags, fused parts or gaps): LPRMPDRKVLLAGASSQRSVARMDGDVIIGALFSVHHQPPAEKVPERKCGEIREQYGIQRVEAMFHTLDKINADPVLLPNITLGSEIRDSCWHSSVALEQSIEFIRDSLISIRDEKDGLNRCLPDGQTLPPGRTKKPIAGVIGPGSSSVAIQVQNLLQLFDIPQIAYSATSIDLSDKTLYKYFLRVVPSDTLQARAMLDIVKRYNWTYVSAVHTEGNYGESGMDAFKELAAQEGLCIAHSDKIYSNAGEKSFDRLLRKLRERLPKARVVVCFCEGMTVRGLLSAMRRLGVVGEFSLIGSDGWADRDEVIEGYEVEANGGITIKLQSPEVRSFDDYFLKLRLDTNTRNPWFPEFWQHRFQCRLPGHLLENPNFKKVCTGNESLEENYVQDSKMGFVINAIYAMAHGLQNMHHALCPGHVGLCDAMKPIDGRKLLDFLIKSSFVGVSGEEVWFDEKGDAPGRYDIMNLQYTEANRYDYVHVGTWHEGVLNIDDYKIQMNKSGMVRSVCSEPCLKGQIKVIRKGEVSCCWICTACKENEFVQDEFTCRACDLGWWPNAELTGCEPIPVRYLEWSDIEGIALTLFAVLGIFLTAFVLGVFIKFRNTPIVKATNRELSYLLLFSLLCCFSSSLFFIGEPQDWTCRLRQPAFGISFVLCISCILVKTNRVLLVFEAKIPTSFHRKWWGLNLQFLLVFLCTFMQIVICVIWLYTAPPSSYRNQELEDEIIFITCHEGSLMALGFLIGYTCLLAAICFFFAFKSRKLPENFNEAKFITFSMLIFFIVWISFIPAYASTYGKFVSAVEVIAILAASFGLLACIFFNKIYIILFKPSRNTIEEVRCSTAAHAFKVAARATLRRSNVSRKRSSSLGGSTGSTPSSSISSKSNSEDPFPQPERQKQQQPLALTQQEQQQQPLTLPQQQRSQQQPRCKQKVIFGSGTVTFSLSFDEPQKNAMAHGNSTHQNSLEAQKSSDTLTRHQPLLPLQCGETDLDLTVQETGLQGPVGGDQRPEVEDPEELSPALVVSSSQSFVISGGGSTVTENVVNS

rat mGluR1 = rat mGluR1 (Rattus norvegicus, UniProt P23385); conditions: Xenopus oocytes; FIG. 9 and FIG. 10A

SMILES	activation of the receptor (CaSPhmGluR2(27-19))	Cl- current in oocytes injected with human CaR RNA (human CaR)	activation of the chimeric receptor (CaSPhmGluR6(27-35))	activation of the chimeric receptor (CaSPhmGluR3(27-33))	activation of the chimeric receptor (CaSPhmGluR7(27-45))	activation of the chimeric receptor (CaSPhmGluR5(27-22))	receptor response (Cl- currents on release of intracellular Ca2+) (pmGluR1/CaR chimera)	receptor response (Cl- currents on release of intracellular Ca2+) (rat mGluR1)
N[C@@H](CCC(=O)O)C(=O)O [L-glutamate]	Activation of the receptor	elicits oscillatory increases in Cl— current	Activation of the chimeric receptor	activation of the chimeric receptor was seen	robust activation	Activation of the chimeric receptor	–	–
N[C@@H](Cn1oc(=O)[nH]c1=O)C(=O)O [quisqualate]	–	–	–	–	–	–	respond comparably	respond comparably
